Where two headings read alike, the source gives them in different places. Values belong to the molecule of their own block, whether it stands above or below them.
Columns and labels:
SphK1 = conditions: both the rat and human enzymes; cited from earlier work
U937 cells [1] = conditions: cited from earlier work
rats = conditions: cited from earlier work
human SphK2 = biological target: T1, human SphK2 (Homo sapiens, UniProt Q9NRA0); assay: Sphingosine kinase assay, recombinant human SphK2, γ-[32P]ATP; conditions: for inhibition at 0.3 µM: read-out: SphK2 inhibition (decrease of activity); for hSphK2 (SphK activity, % control, no inhibitor added): compounds at 0.3 μM, triplicate, 10 μM sphingosine, 250 μM γ-[32P]ATP
T1 sequence (Q9NRA0 1-654): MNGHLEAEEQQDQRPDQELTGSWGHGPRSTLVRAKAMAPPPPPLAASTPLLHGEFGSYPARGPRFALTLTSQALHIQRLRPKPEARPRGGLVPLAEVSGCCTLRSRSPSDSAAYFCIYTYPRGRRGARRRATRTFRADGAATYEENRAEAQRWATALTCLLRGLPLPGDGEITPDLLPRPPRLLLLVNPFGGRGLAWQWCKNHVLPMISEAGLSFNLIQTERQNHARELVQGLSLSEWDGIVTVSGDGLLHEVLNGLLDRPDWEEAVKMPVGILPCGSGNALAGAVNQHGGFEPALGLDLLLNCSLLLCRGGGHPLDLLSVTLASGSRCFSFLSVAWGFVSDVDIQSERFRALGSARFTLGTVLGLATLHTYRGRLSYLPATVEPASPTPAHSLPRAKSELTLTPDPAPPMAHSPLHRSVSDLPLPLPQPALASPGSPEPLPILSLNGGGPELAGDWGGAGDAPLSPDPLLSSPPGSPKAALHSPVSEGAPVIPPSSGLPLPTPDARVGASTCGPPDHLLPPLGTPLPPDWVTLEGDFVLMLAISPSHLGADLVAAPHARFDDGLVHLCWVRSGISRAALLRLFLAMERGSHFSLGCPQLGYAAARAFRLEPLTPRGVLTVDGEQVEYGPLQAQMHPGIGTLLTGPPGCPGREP

human SphK1 = human SphK1 (Homo sapiens, UniProt Q9NYA1); assay: Sphingosine kinase assay, recombinant human SphK1, γ-[32P]ATP; conditions: for remaining activity at 0.3 µM: read-out: hSphK1 (SphK activity, % control, no inhibitor added)
human SphK1, sequence (Q9NYA1 whole entry): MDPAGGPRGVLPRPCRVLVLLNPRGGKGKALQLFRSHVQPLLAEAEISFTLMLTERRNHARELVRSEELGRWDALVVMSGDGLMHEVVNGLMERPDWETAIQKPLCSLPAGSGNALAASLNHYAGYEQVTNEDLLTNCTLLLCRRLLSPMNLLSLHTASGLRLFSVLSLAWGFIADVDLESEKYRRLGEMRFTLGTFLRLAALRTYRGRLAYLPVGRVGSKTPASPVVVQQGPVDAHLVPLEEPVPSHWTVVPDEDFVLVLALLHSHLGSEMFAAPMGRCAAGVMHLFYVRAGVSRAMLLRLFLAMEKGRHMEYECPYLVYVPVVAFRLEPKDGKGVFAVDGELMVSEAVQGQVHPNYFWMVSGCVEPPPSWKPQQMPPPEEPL

U937 cells [2] = assay: Sphingolipid; format: cell-based, human; conditions: 2 h incubation, LC-MS-MS
C57BL/6 mice = assay: Blood S1P levels in mice after ip dosing, LC-MS-MS; format: in vivo; conditions: single 10 mg/kg ip dose
[3] = read-out: hSphK2 (SphK activity, % control, no inhibitor added)
[4] = read-out: SphK2 activity remaining

Molecule: CCCCCCCCc1ccc(-c2noc(C[C@@H]3CCCN3C(=N)N)n2)cc1 [Compound 3]
selectivity for SphK1 over SphK2 (SphK1): > 100 fold | S1P levels in cultured human U937 leukemia cells (U937 cells [1]): reduce S1P levels | S1P levels in the bloodstream of rats (rats): reduce S1P levels

Molecule: Cl.N=C(N)N1CCC[C@H]1Cc1nc(-c2ccc(Nc3nc(-c4ccccc4)cs3)cc2)no1 [Compound 20a, (S)-amino(2-((3-(4-((4-phenylthiazol-2-yl)amino)phenyl)-1,2,4-oxadiazol-5-yl)methyl)pyrrolidin-1-yl)methaniminium chloride]
SphK2 inhibition, in words (human SphK2; screen at 0.3 μM): poor inhibition | SphK1 inhibition, in words (human SphK1; screen at 0.3 μM): poor inhibition

Molecule: N=C(N)N1CCC[C@H]1Cc1nc(-c2ccc(Nc3nc(-c4ccncc4)cs3)cc2)no1.O=C(O)C(F)(F)F [Compound 20b, (S)-amino(2-((3-(4-((4-(pyridin-4-yl)thiazol-2-yl)amino)phenyl)-1,2,4-oxadiazol-5-yl)methyl)pyrrolidin-1-yl)methaniminium trifluoroacetate]
SphK2 inhibition, in words (human SphK2; screen at 0.3 μM): inactive | SphK1 inhibition, in words (human SphK1; screen at 0.3 μM): inactive

Molecule: Cl.N=C(N)N1CCC[C@H]1Cc1nc(-c2ccc(Nc3nc(-c4cc(C(F)(F)F)cc(C(F)(F)F)c4)cs3)cc2)no1 [Compound 20bb, (S)-amino(2-((3-(4-((4-(3,5-bis(trifluoromethyl)phenyl)thiazol-2-yl)amino)phenyl)-1,2,4-oxadiazol-5-yl)methyl)pyrrolidin-1-yl)methaniminium chloride]
SphK1 inhibition, in words (human SphK1; concentrations up to 1 μM): inactive

Molecule: Cl.N=C(N)N1CCC[C@H]1Cc1nc(-c2ccc(Nc3nc(-c4cccnc4)cs3)cc2)no1 [Compound 20c, (S)-amino(2-((3-(4-((4-(pyridin-3-yl)thiazol-2-yl)amino)phenyl)-1,2,4-oxadiazol-5-yl)methyl)pyrrolidin-1-yl)methaniminium chloride]
SphK2 inhibition, in words (human SphK2; screen at 0.3 μM): inactive | SphK1 inhibition, in words (human SphK1; screen at 0.3 μM): inactive

Molecule: Cl.N=C(N)N1CCC[C@H]1Cc1nc(-c2ccc(Nc3nc(-c4ccc(-c5ccccc5)cc4)cs3)cc2)no1 [Compound 20dd, (S)-(2-((3-(4-((4-([1,1′-biphenyl]-4-yl)thiazol-2-yl)amino)phenyl)-1,2,4-oxadiazol-5-yl)methyl)pyrrolidin-1-yl)(amino)methaniminium chloride]
S1P levels in U937 cells (U937 cells [2]): concentration-dependent decrease | Sph (sphingosine) levels in U937 cells (U937 cells [2]): remained constant | blood S1P levels (C57BL/6 mice; after 24 hours): returned to basal levels | blood S1P levels (C57BL/6 mice; two and six hour time points): increased

Molecule: Cl.N=C(N)N1CCC[C@H]1Cc1nc(-c2ccc(Nc3nc(-c4cccc(C(F)(F)F)c4)cs3)cc2)no1 [Compound 20l, (S)-amino(2-((3-(4-((4-(3-(trifluoromethyl)phenyl)thiazol-2-yl)amino)phenyl)-1,2,4-oxadiazol-5-yl)methyl)pyrrolidin-1-yl)methaniminium chloride]
S1P levels in U937 cells (U937 cells [2]): concentration-dependent decrease | Sph (sphingosine) levels in U937 cells (U937 cells [2]): remained constant

Molecule: (S)-(2-((3-(4-((4-([1,1′-biphenyl]-4-yl)thiazol-2-yl)amino)phenyl)-1,2,4-oxadiazol-5-yl)methyl)pyrrolidin-1-yl)(amino)methaniminium chloride [Compound 34]
hSphK2 (SphK activity, % control, no inhibitor added) (human SphK2): 100 ±5 % control | SphK2 inhibition, in words (human SphK2; concentrations up to 1 μM): completely inactive

Molecule: (S)-amino(2-((3-(4-((4-(benzofuran-2-yl)thiazol-2-yl)amino)phenyl)-1,2,4-oxadiazol-5-yl)methyl)pyrrolidin-1-yl)methaniminium chloride [Compound 20ee]
hSphK2 (SphK activity, % control, no inhibitor added) (human SphK2): 67 ±5 % control

Continued, values first:

inhibition at 0.3 µM (human SphK2): < 30% | remaining activity at 0.3 µM (human SphK2; [3]): 44 ± 12% | remaining activity at 0.3 µM (human SphK1): 89 ± 0.7%
Molecule: Cc1ccc(-c2csc(Nc3ccc(-c4noc(C[C@@H]5CCCN5C(=N)N)n4)cc3)n2)cc1 [Compound 20n, (S)-amino(2-((3-(4-((4-(p-tolyl)thiazol-2-yl)amino)phenyl)-1,2,4-oxadiazol-5-yl)methyl)pyrrolidin-1-yl)methaniminium chloride]

inhibition at 0.3 µM (human SphK2): < 30% | remaining activity at 0.3 µM (human SphK2; [3]): 82 ± 6% | remaining activity at 0.3 µM (human SphK1): 58 ± 4%
Molecule: COc1ccc(-c2csc(Nc3ccc(-c4noc(C[C@@H]5CCCN5C(=N)N)n4)cc3)n2)cc1 [Compound 20o, (S)-amino(2-((3-(4-((4-(4-methoxyphenyl)thiazol-2-yl)amino)phenyl)-1,2,4-oxadiazol-5-yl)methyl)pyrrolidin-1-yl)methaniminium chloride]

inhibition at 0.3 µM (human SphK2): < 30% | remaining activity at 0.3 µM (human SphK2; [3]): 80 ± 7% | remaining activity at 0.3 µM (human SphK1): 75 ± 0.2%
Molecule: CCOc1ccc(-c2csc(Nc3ccc(-c4noc(C[C@@H]5CCCN5C(=N)N)n4)cc3)n2)cc1 [Compound 20p, (S)-amino(2-((3-(4-((4-(4-ethoxyphenyl)thiazol-2-yl)amino)phenyl)-1,2,4-oxadiazol-5-yl)methyl)pyrrolidin-1-yl)methaniminium chloride]

remaining activity at 0.3 µM (human SphK2; [4]): ~40% | remaining activity at 0.3 µM (human SphK2; [3]): 84 ± 2%
Molecule: N=C(N)N1CCC[C@H]1Cc1nc(-c2ccc(Nc3nc(-c4ccc(OC(F)(F)F)cc4)cs3)cc2)no1 [Compound 20r, (S)-amino(2-((3-(4-((4-(4-(trifluoromethoxy)phenyl)thiazol-2-yl)amino)phenyl)-1,2,4-oxadiazol-5-yl)methyl)pyrrolidin-1-yl)methaniminium chloride]

remaining activity at 0.3 µM (human SphK2; [3]): 100 ± 2% | remaining activity at 0.3 µM (human SphK1): 90 ± 1%
Molecule: N=C(N)N1CCC[C@H]1Cc1nc(-c2ccc(Nc3nc(-c4cccc(OC(F)(F)F)c4)cs3)cc2)no1 [Compound 20s, (S)-amino(2-((3-(4-((4-(3-(trifluoromethoxy)phenyl)thiazol-2-yl)amino)phenyl)-1,2,4-oxadiazol-5-yl)methyl)pyrrolidin-1-yl)methaniminium chloride]

remaining activity at 0.3 µM (human SphK2; [4]): ~70% | SphK1 inhibition, in words (human SphK1; screen at 0.3 μM): no SphK1 inhibition
Molecule: COc1ccc(-c2csc(Nc3ccc(-c4noc(C[C@@H]5CCCN5C(=N)N)n4)cc3)n2)cc1Cl.Cl [Compound 20v, (S)-amino(2-((3-(4-((4-(3-chloro-4-methoxyphenyl)thiazol-2-yl)amino)phenyl)-1,2,4-oxadiazol-5-yl)methyl)pyrrolidin-1-yl)methaniminium chloride]

SphK2 inhibition, in words (human SphK2; screen at 0.3 μM): inactive | SphK1 inhibition, in words (human SphK1; screen at 0.3 μM): inactive
Molecule: Cl.N=C(N)N1CCC[C@H]1Cc1nc(-c2ccc(Nc3nc(-c4ccc(-c5ccc(C(F)(F)F)cc5)cc4)cs3)cc2)no1 [Compound 23c, (S)-amino(2-((3-(4-((4-(4′-(trifluoromethyl)-[1,1′-biphenyl]-4-yl)thiazol-2-yl)amino)phenyl)-1,2,4-oxadiazol-5-yl)methyl)pyrrolidin-1-yl)methaniminium chloride]

SphK2 inhibition, in words (human SphK2; screen at 0.3 μM): inactive | SphK1 inhibition, in words (human SphK1; screen at 0.3 μM): inactive
Molecule: Cl.N=C(N)N1CCC[C@H]1Cc1nc(-c2ccc(Nc3nc(-c4ccc(-c5cccc(C(F)(F)F)c5)cc4)cs3)cc2)no1 [Compound 23d, (S)-amino(2-((3-(4-((4-(3′-(trifluoromethyl)-[1,1′-biphenyl]-4-yl)thiazol-2-yl)amino)phenyl)-1,2,4-oxadiazol-5-yl)methyl)pyrrolidin-1-yl)methaniminium chloride]

inhibition at 0.3 µM (human SphK2): ~45% | inhibition at 0.3 µM (human SphK1; read-out: SphK1 inhibition (decrease of activity)): ~45%
Molecule: N=C(N)N1CCC[C@H]1Cc1nc(-c2ccc(Oc3nc(-c4ccc(C(F)(F)F)cc4)cs3)cc2)no1 [Compound 31, (S)-amino(2-((3-(4-((4-(4-(trifluoromethyl)phenyl)thiazol-2-yl)oxy)phenyl)-1,2,4-oxadiazol-5-yl)methyl)pyrrolidin-1-yl)methaniminium chloride]
